# Measurements from patent publication US10882860B2, “Treatment of osteoarthritis” (Samumed, LLC, priority 2015, dated 2021).
# Read-outs that look alike come from different tables or passages of the source. Marks after values point to notes of the source that are not given here.
# What was measured:
# Type in all cases: physicochemical
# [1] = Slurry experiments in various solvents (polymorph screen)
# Experimental: Slurry experiments in various solvents were performed. Approximately 30-80 mg of the starting solid (a non-stoichiometric hydrate of Form 1 having between 1% and about 20% by weight water) was slurried in 39 different solvents (pure and binary solvents; the ratio of organic solvent/water (V/V) was 95%/5%) at RT and 50° C. for 5 days. Three solvates, […], and eleven non-solvated forms were identified. […] XRD of both wet and dry samples were scanned (FIG. 12A (dry sample)).
# The slurry experiments identified 3 solvated forms from wet samples (Solvates 1, 2, and 3); 2 non-stoichiometric hydrates of Form 1 (Forms 12 and 13); and 11 non-solvated forms (Forms 1-11). In some instances, similar XRD scans with minor differences were obtained. These were considered to be part of the same class (e.g., the same form). For example, XRD scans of Form 2 and Form 2* were similar and were considered to belong to the same class. The solvated forms were obtained from wet sample analysis; after drying, the sample indicated a different XRD.
# [2] = Dynamic vapor sorption (DVS) and exposure to humidity/air of solid forms
# Experimental: The hydrate lost its water below 30% RH.
# The purity of the Form 13 sample was 98.8%; the KF of an undried Form 13 sample was 35.7%.
# Solvates 1 and 2 solids were exposed to air overnight, and then analyzed by XRD. After the analysis, the solids were dried at 50° C. under vacuum, and then analyzed by XRD again.
# [3] = Competitive slurry experiments between polymorph forms (thermodynamic stability); conditions: for most stable form in competitive slurry: 15 forms mixed (10 mg each), RT and 50° C., 3-5 days
# Experimental: In order to find out the thermodynamic stability between the different forms, several competitive slurry experiments were carried out. Form 1, Form 2, Form 2*, Form 3, Form 4, Form 4*, Form 4**, Form 5, Form 7, Form 8, Form 9, Form 10, Form 11, Form 11*, and Form 13 (10 mg for each) was mixed and slurried in 2 mL of solvent at both RT and 50° C. The solids were slurried for 3-5 days and then analyzed by XRD.
# In order to find out the thermodynamic stability between Form 13 and Form 9, several competitive slurry experiments were carried out. 15 mg of Form 1, Form 9 and Form 13 solid were mixed in 1 mL of toluene, IPAc, and n-butyl acetate, and slurried for 3 days at RT and 50° C.
# The residual solid was analyzed by XRD.
# [4] = Solubility of the starting solid by the gravimetric method; conditions: for solubility: thermodynamic from solid
# [5] = slurry in EtOH/water (5% water), 50° C.
# [6] = slurry in n-Butyl acetate, 50° C.
# [7] = slurry in n-Propanol/water (5% water), 50° C.
# [8] = slurry in DMF/water (5% water), 50° C.
# [9] = slurry in DMF/water (5% water), RT
# [10] = slurry in DMSO/water (5% water), 50° C.
# [11] = slurry in DMSO/water (5% water), RT
smiles,measurement,setting,value
CC(C)CC(=O)Nc1cncc(-c2ccc3[nH]nc(-c4nc5c(-c6cccc(F)c6)cncc5[nH]4)c3c2)c1 [Form 9],Dry (solid form by XRD after slurry),[1]; [5],Form 9
same,Wet (solid form by XRD after slurry),[1]; [5],Form 9
same,Dry (solid form by XRD after slurry),"[1]; slurry in IPAc, 50° C.",Form 9
same,Wet (solid form by XRD after slurry),"[1]; slurry in IPAc, 50° C.",Form 9
same,Dry (solid form by XRD after slurry),"[1]; slurry in n-Butanol, 50° C.",Form 9
same,Wet (solid form by XRD after slurry),"[1]; slurry in n-Butanol, 50° C.",Form 9
same,Dry (solid form by XRD after slurry),"[1]; slurry in n-Butanol, RT",Form 9
same,Wet (solid form by XRD after slurry),"[1]; slurry in n-Butanol, RT",Form 9
same,Dry (solid form by XRD after slurry),[1]; [6],Form 9
same,Wet (solid form by XRD after slurry),[1]; [6],Form 9
same,Dry (solid form by XRD after slurry),[1]; [7],Form 9
same,Wet (solid form by XRD after slurry),[1]; [7],Form 9
same,change of form before and after the DVS scan,[2]; XRD before/after DVS,did not change its form
CC(C)CC(=O)Nc1cncc(-c2ccc3[nH]nc(-c4nc5c(-c6cccc(F)c6)cncc5[nH]4)c3c2)c1 [Form 13],most stable form in competitive slurry,[3]; water,most stable
CC(C)CC(=O)Nc1cncc(-c2ccc3[nH]nc(-c4nc5c(-c6cccc(F)c6)cncc5[nH]4)c3c2)c1 [Solvate 2],form change after exposure to air overnight (XRD),[2],changed a little
CC(C)CC(=O)Nc1cncc(-c2ccc3[nH]nc(-c4nc5c(-c6cccc(F)c6)cncc5[nH]4)c3c2)c1 [starting solid],Solubility (gravimetric method),"[4]; RT and 50° C., all solvents tested except DMF and DMSO",low solubility
same,solubility,"[4]; organic solvent or mixture, Acetic acid, 50° C., read-out: Solubility at 50° C.",3000 µg/mL
same,solubility,"[4]; organic solvent or mixture, Acetone, 50° C., read-out: Solubility at 50° C.",1000 µg/mL
same,solubility,"[4]; organic solvent or mixture, Acetone, RT, read-out: Solubility at RT",1000 µg/mL
same,solubility,"[4]; organic solvent or mixture, DCM, 50° C., read-out: Solubility at 50° C.",2000 µg/mL
same,solubility,"[4]; organic solvent or mixture, DCM, RT, read-out: Solubility at RT",2000 µg/mL
same,solubility,"[4]; organic solvent or mixture, DMF, 50° C., read-out: Solubility at 50° C.",16000 µg/mL
same,solubility,"[4]; organic solvent or mixture, DMF, RT, read-out: Solubility at RT",12000 µg/mL
same,solubility,"[4]; organic solvent or mixture, EA, 50° C., read-out: Solubility at 50° C.",1000 µg/mL
same,solubility,"[4]; organic solvent or mixture, EA, RT, read-out: Solubility at RT",1000 µg/mL
same,solubility,"[4]; organic solvent or mixture, EtOH, 50° C., read-out: Solubility at 50° C.",2000 µg/mL
same,solubility,"[4]; organic solvent or mixture, EtOH, RT, read-out: Solubility at RT",2000 µg/mL
same,solubility,"[4]; organic solvent or mixture, IPA, 50° C., read-out: Solubility at 50° C.",5000 µg/mL
same,solubility,"[4]; organic solvent or mixture, IPA, RT, read-out: Solubility at RT",2000 µg/mL
same,solubility,"[4]; organic solvent or mixture, MEK, 50° C., read-out: Solubility at 50° C.",1000 µg/mL
same,solubility,"[4]; organic solvent or mixture, MEK, RT, read-out: Solubility at RT",1000 µg/mL
same,solubility,"[4]; organic solvent or mixture, MIBK, 50° C., read-out: Solubility at 50° C.",1000 µg/mL
same,solubility,"[4]; organic solvent or mixture, MIBK, RT, read-out: Solubility at RT",1000 µg/mL
same,solubility,"[4]; organic solvent or mixture, MeOH, 50° C., read-out: Solubility at 50° C.",1000 µg/mL
same,solubility,"[4]; organic solvent or mixture, MeOH, RT, read-out: Solubility at RT",1000 µg/mL
same,solubility,"[4]; organic solvent or mixture, Toluene, 50° C., read-out: Solubility at 50° C.",1000 µg/mL
same,solubility,"[4]; organic solvent or mixture, Toluene, RT, read-out: Solubility at RT",1000 µg/mL
same,solubility,"[4]; organic solvent or mixture, n-Butanol, 50° C., read-out: Solubility at 50° C.",2000 µg/mL
same,solubility,"[4]; organic solvent or mixture, n-Butanol, RT, read-out: Solubility at RT",1000 µg/mL
same,solubility,"[4]; organic solvent or mixture, n-Propanol, 50° C., read-out: Solubility at 50° C.",2000 µg/mL
same,solubility,"[4]; organic solvent or mixture, n-Propanol, RT, read-out: Solubility at RT",1000 µg/mL
same,solubility,"[4]; water, 50° C., read-out: Solubility at 50° C.",1000 µg/mL
same,solubility,"[4]; water, RT, read-out: Solubility at RT",1000 µg/mL
"CC(C)CC(=O)Nc1cncc(-c2ccc3[nH]nc(-c4nc5c(-c6cccc(F)c6)cncc5[nH]4)c3c2)c1 [Form 1, Form 9 and Form 13]",Form after 3 days; wet/dry,"[3]; 50° C., IPAc",Form 9/Form 9
same,Form after 3 days; wet/dry,"[3]; 50° C., Toluene",Form 9 + Form 13/Form 9 + Form 1
same,Form after 3 days; wet/dry,"[3]; 50° C., n-Butyl acetate",Form 9 + Form 13/Form 9 + Form 1
same,Form after 3 days; wet/dry,"[3]; RT, IPAc",Form 9 + Form 13/Form 9 + Form 1
same,Form after 3 days; wet/dry,"[3]; RT, Toluene",Form 13/Form 1
same,Form after 3 days; wet/dry,"[3]; RT, n-Butyl acetate",Form 9 + Form 13/Form 9 + Form 1
CC(C)CC(=O)Nc1cncc(-c2ccc3[nH]nc(-c4nc5c(-c6cccc(F)c6)cncc5[nH]4)c3c2)c1 [Form 4],most stable form in competitive slurry,[3]; EA,most stable
CC(C)CC(=O)Nc1cncc(-c2ccc3[nH]nc(-c4nc5c(-c6cccc(F)c6)cncc5[nH]4)c3c2)c1 [Form 11],Dry (solid form by XRD after slurry),"[1]; slurry in DMF, 50° C.",Form 11*
same,Wet (solid form by XRD after slurry),"[1]; slurry in DMF, 50° C.",Form 11
same,Dry (solid form by XRD after slurry),"[1]; slurry in DMF, RT",Form 11
same,Wet (solid form by XRD after slurry),"[1]; slurry in DMF, RT",Form 11
same,Dry (solid form by XRD after slurry),[1]; [8],Form 11
same,Wet (solid form by XRD after slurry),[1]; [8],Form 11
same,Dry (solid form by XRD after slurry),[1]; [9],Form 11
same,Wet (solid form by XRD after slurry),[1]; [9],Form 11
CC(C)CC(=O)Nc1cncc(-c2ccc3[nH]nc(-c4nc5c(-c6cccc(F)c6)cncc5[nH]4)c3c2)c1 [Solvate 1],form change after exposure to air overnight (XRD),[2],converted to low crystallinity
CC(C)CC(=O)Nc1cncc(-c2ccc3[nH]nc(-c4nc5c(-c6cccc(F)c6)cncc5[nH]4)c3c2)c1 [Form 10],Dry (solid form by XRD after slurry),"[1]; slurry in DMSO, 50° C.",Form 10*
same,Wet (solid form by XRD after slurry),"[1]; slurry in DMSO, 50° C.",amorphous
same,Dry (solid form by XRD after slurry),"[1]; slurry in DMSO, RT",Form 10
same,Wet (solid form by XRD after slurry),"[1]; slurry in DMSO, RT",amorphous
same,Dry (solid form by XRD after slurry),[1]; [10],Form 10
same,Wet (solid form by XRD after slurry),[1]; [10],amorphous
same,Dry (solid form by XRD after slurry),[1]; [11],Form 10
same,Wet (solid form by XRD after slurry),[1]; [11],amorphous
CC(C)CC(=O)Nc1cncc(-c2ccc3[nH]nc(-c4nc5c(-c6cccc(F)c6)cncc5[nH]4)c3c2)c1 [Form 1],form change when exposed to air,[2]; exposed to air,converts to Form 13
